{"source": "patent US11225460B2", "about": "“Pyrrolidineamide derivatives and uses thereof” (SUNSHINE LAKE PHARMA CO., LTD., priority 2019, dated 2022)", "key": {"[1]": {"target": "T1, potassium channel of hERG (Homo sapiens, UniProt Q12809)", "T1 construct": "expressed in transfected cells; host or cells: HEK-293 cells", "T1 sequence (Q12809 whole entry)": "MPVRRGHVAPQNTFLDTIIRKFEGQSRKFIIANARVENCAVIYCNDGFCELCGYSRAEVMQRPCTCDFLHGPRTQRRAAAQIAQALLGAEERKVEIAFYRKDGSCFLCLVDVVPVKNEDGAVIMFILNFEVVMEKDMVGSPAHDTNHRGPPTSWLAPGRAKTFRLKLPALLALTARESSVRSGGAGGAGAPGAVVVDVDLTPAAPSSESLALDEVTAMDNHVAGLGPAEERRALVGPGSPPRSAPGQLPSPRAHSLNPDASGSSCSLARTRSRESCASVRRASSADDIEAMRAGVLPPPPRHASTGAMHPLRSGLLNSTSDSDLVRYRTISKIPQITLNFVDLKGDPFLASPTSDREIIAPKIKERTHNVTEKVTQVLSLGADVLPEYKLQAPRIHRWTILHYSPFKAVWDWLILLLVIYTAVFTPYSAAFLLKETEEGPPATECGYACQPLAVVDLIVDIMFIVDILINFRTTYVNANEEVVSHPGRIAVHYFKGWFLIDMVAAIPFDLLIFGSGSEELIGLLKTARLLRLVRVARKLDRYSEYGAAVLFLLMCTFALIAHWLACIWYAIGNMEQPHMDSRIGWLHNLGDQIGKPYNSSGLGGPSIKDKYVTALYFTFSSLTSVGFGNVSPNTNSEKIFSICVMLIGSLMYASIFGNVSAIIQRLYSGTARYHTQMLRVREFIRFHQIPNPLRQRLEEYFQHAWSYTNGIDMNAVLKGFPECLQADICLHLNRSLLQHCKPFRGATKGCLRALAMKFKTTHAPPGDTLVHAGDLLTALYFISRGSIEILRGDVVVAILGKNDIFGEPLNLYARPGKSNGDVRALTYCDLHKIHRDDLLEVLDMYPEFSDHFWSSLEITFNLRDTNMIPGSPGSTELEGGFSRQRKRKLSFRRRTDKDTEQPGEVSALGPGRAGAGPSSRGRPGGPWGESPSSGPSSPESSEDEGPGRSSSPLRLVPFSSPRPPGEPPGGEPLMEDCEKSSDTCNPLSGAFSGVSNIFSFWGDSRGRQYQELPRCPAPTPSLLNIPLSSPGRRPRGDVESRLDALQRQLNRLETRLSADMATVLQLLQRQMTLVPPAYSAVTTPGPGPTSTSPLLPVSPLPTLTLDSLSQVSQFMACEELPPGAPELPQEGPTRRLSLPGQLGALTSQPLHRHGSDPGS", "assay": "Inhibitory effect on potassium channel of hERG by electrophysiological manual patch clamp", "assay_type": "cell-based", "conditions": "HEK-293 cells overexpressed potassium channel of hERG, 0.37-30.00 μM, read-out: IC50 acting on hERG potassium channel", "procedure": "The cell line was derived from HEK-293 cells overexpressed potassium channel of hERG.\nThe cells were cultured in a5% CO2 incubator at 37° C. When the cell density reached 80% of the culture dish, the cells were pre-cleaned with phosphate buffer (PBS), and then digested with trypsin/EDTA for 2-3 minutes. and then the cell culture medium was added to stop digestion. The cells were blew with a pipette gently and transferred to a centrifugal tube. The cells were centrifuged for 3 minutes at 1,000 rpm. The supernatant was poured out. The cell culture medium was added and blew gently to mix the cells well. Then the cells were transferred to a culture dish for subculture, or the cells were dropped onto a circular slide and placed in a culture dish until cell adherence for experiment. […]\nhERG potassium channel current was recorded by using the whole cell recording mode. Firstly, the extracellular fluid (about 2 milliliters per minute) was perfused and recorded continuously, and waiting the current stabilization (Run-Down was less than 5% in 5 minutes). […] Then the extracellular fluid containing the tested compounds was perfused (the concentration of the tested compounds were 0.37 μM, 1.10 μM, 3.30 μM, 10.00 μM and 30.00 μM, respectively) and current value was recorded continuously until the inhibitory effect of the tested compounds on hERG current reached a stable state. […]"}, "[2]": {"assay": "Pharmacokinetic evaluation after intravenous or gavage administration in monkeys", "assay_type": "in vivo", "procedure": "The LC-MS/MS system comprises Agilent 1200 series vacuum degassing furnace, quaternary pumps, well-plate autosampler, thermostatted column compartment, the API4000Qtrap Triple Quadrupole Mass Spectrometer with an electrospray ionization (ESI) source. Quantitative analysis was carried out using MRM mode. The parameters for MRM transitions are in Table 2.\nAnalysis was carried out on waters xbridge C18 (2.1×50 mm, […] column, 0.5 μL of sample), the analytic conditions are mobile phases cosisting of water+2 mM ammonium formate+0.1% formic acid (Phase A) and methanol+2 mM ammonium formate+0.1% formic acid (Phase B). The flow rate was 0.4 mL/min. And the gradient of Mobile phase was in Table 3.\nEach animal species was divided into two groups: one was administered intravenously and the other was administered intragastrically. The compounds disclosed herein were administered in form of a solution containing 5% DMSO+5% Kolliphor HS15+90% Saline. For the group of intravenous administration, the administration dose was 1 mg/kg, and vein blood samples (0.3 ml) were collected at the time points of 0.083, 0.25, 0.5, 1.0, 2.0, 4.0, 6.0, 8.0 and 24 h after drug administration, then plasma solutions were collected by centrifuging each blood sample at 3000 rpm or 4000 rpm for 10 minutes and kept at −20° C. or −70° C. For the group of intragastric administration, the administration dose was 5 mg/kg, and vein blood samples (0.3 mL) were collected at the time points of 0.25, 0.5, 1.0, 2.0, 4.0, 6.0, 8.0 and 24 h after drug administration, then plasma solutions were collected by centrifuging each blood sample at 3000 rpm or 4000 rpm for 10 minutes and kept at −20° C. or −70° C.\n20 μL of plasma was blended with 120 μl, 50 ng/ml propranolol standard water solution, then the mixture was extracted with 1.0 mL methyl tert-butyl ether (MTBE), 0.7 mL of supernatant was dried by blow with nitrogen and then dissolved again with 220 μL methanol water (methanol/water (v/v)=1/1). LC-MS/MS method was used to detect the concentration of the target compounds, and […] was used to calculate the pharmacokinetic parameters."}, "[3]": {"conditions": "monkey, plasma, iv, i.v group, 1 mg/kg"}, "[4]": {"conditions": "monkey, plasma, po, i.g group, 5 mg/kg"}}, "note": "Read-outs that look alike come from different tables or passages of the source."}
{"smiles": "NC(=O)[C@@H]1C[C@H](F)CN1Cc1ccc(OCc2cccc(F)c2)cc1", "note": "[Example 1, (2S,4S)-4-fluoro-1-(4-(3-fluorobenzyloxy)benzyl)pyrrolidine-2-formamide]", "values": [{"measurement": "IC50", "setting": "[1]", "value": "> 30", "unit": "µM"}, {"measurement": "AUClast", "setting": "[2]; i.g group, 5 mg/kg", "value": 11300, "unit": "ng·h/mL"}, {"measurement": "Cmax", "setting": "[2]; i.g group, 5 mg/kg", "value": 2280, "unit": "ng/mL"}, {"measurement": "F", "setting": "[2]; i.g group, 5 mg/kg", "value": 107.1, "unit": "%"}, {"measurement": "T1/2", "setting": "[2]; i.g group, 5 mg/kg", "value": 2.8, "unit": "h"}, {"measurement": "AUClast", "setting": "[2]; i.v group, 1 mg/kg", "value": 2120, "unit": "ng·h/mL"}, {"measurement": "Cl", "setting": "[2]; i.v group, 1 mg/kg", "value": 7.54, "unit": "mL/min/kg"}, {"measurement": "Cmax", "setting": "[2]; i.v group, 1 mg/kg", "value": 924, "unit": "ng/mL"}, {"measurement": "T1/2", "setting": "[2]; i.v group, 1 mg/kg", "value": 1.77, "unit": "h"}, {"measurement": "AUC(0-inf)", "setting": "[2]; [3]", "value": 2210, "unit": "ng·h/mL"}, {"measurement": "MRT inf", "setting": "[2]; [3]", "value": 2.35, "unit": "h"}, {"measurement": "Tmax", "setting": "[2]; [3]", "value": 0.083, "unit": "h"}, {"measurement": "AUC(0-inf)", "setting": "[2]; [4]", "value": 11400, "unit": "ng·h/mL"}, {"measurement": "MRT inf", "setting": "[2]; [4]", "value": 4.33, "unit": "h"}, {"measurement": "Tmax", "setting": "[2]; [4]", "value": 1, "unit": "h"}]}
{"smiles": "NC(=O)[C@@H]1C[C@H](F)CN1Cc1ccc(OCc2cccc(F)c2)cc1F", "note": "[Example 3, (2S,4S)-4-fluoro-1-(2-fluoro-4-(3-fluorobenzyloxy)benzyl)pyrrolidine-2-formamide]", "values": [{"measurement": "F", "setting": "[2]; i.g group, 5 mg/kg", "value": 69.1, "unit": "%"}, {"measurement": "AUC(0-inf)", "setting": "[2]; [3]", "value": 3260, "unit": "ng·h/mL"}, {"measurement": "AUC(0-t)", "setting": "[2]; [3]", "value": 3240, "unit": "ng·h/mL"}, {"measurement": "MRT inf", "setting": "[2]; [3]", "value": 3.41, "unit": "h"}, {"measurement": "Tmax", "setting": "[2]; [3]", "value": 0.083, "unit": "h"}, {"measurement": "clearance", "setting": "[2]; [3]", "value": 5.12, "unit": "mL/min/kg"}, {"measurement": "half-life", "setting": "[2]; [3]", "value": 2.24, "unit": "h"}, {"measurement": "Cmax", "setting": "[2]; monkey, plasma, iv, i.v group, 1 mg/kg, read-out: Cmax", "value": 1610, "unit": "ng/mL"}, {"measurement": "AUC(0-inf)", "setting": "[2]; [4]", "value": 11200, "unit": "ng·h/mL"}, {"measurement": "AUC(0-t)", "setting": "[2]; [4]", "value": 11200, "unit": "ng·h/mL"}, {"measurement": "MRT inf", "setting": "[2]; [4]", "value": 5.02, "unit": "h"}, {"measurement": "Tmax", "setting": "[2]; [4]", "value": 1, "unit": "h"}, {"measurement": "half-life", "setting": "[2]; [4]", "value": 3.39, "unit": "h"}, {"measurement": "Cmax", "setting": "[2]; monkey, plasma, po, i.g group, 5 mg/kg, read-out: Cmax", "value": 2010, "unit": "ng/mL"}]}
